Source: US9113629B2, “4-amino-6-(4-substituted-phenyl)-picolinates and 6-amino-2-(4-substituted-phenyl)-pyrimidine-4-carboxylates and their use as herbicides” (DOW AGROSCIENCES LLC, priority 2013, dated 2015)
Read-outs that look alike come from different tables or passages of the source.

Assays:
[1] = tested on: Key Broadleaf Weed and Crop Species; test: Post-emergent Test II herbicidal activity (Table 5); type: in vivo; conditions: post-emergence, 336 h, 14 days after application
Method: (§1) Post-emergent Test II: Seeds or nutlets of the desired test plant species were planted in Sun Gro Metro-Mix® 360 planting mixture, which typically has a pH of 6.0 to 6.8 and an organic matter content of about 30 percent, in plastic pots with a surface area of 64 square centimeters. When required to ensure good germination and healthy plants, a fungicide treatment and/or other chemical or physical treatment was applied. The plants were grown for 7-21 d in a greenhouse with an approximate 15 h photoperiod which was maintained at about 23-29° C. during the day and 22-28° C. during the night. Nutrients and water were added on a regular basis and supplemental lighting was provided with overhead metal halide 1000-Watt lamps as necessary. The plants were employed for testing when they reached the first or second true leaf stage.
(§2) A weighed amount, determined by the highest rate to be tested, of each test compound was placed in a 25 mL glass vial and was dissolved in 4 mL of a 97:3 v/v mixture of acetone and DMSO to obtain concentrated stock solutions. […] The concentrated stock solutions obtained were diluted with 20 mL of an aqueous mixture containing acetone, water, isopropyl alcohol, DMSO. Atplus 411F crop oil concentrate, and Triton® X-155 surfactant in a 48.5:39:10:1.5:1.0:0.02 v/v ratio to obtain spray solutions containing the highest application rates. Additional application rates were obtained by serial dilution of 12 mL of the high rate solution into a solution containing 2 mL of 97:3 v/v mixture of acetone and DMSO and 10 mL of an aqueous mixture containing acetone, water, isopropyl alcohol, DMSO, Atplus 411F crop oil concentrate, and Triton X-155 surfactant in a 48.5:39:10:1.5:1.0:0.02 v/v ratio to obtain ½×, ¼×, ⅛× and 1/16× rates of the high rate. Compound requirements are based upon a 12 mL application volume at a rate of 187 liters per hectare (L/ha). Formulated compounds were applied to the plant material with an overhead Mandel track sprayer equipped with 8002E nozzles calibrated to deliver 187 L/ha over an application area of 0.503 square meters at a spray height of 18 inches (43 cm) above the average plant canopy height. Control plants were sprayed in the same manner with the solvent blank.
(§3) The treated plants and control plants were placed in a greenhouse as described above and watered by subirrigation to prevent wash-off of the test compounds. After 14 d, the condition of the test plants as compared with that of the untreated plants was determined visually and scored on a scale of 0 to 100 percent where 0 corresponds to no injury and 100 corresponds to complete kill.

[2] = tested on: Key Grass and Sedge Weeds as well as Grass Crops; test: Post-emergent Test II herbicidal activity (Table 6); type: in vivo; conditions: post-emergence, 336 h; for pest or weed control at 70 g/ha: application rate 70 g ai/ha; for pest or weed control at 140 g/ha: application rate 140 g ai/ha
Method: as §1, §2, §3

[3] = Triticum aestivum, TRZSS (wheat), read-out: Visual Growth Reduction (%) 14 Days After Application, TRZSS
[4] = CYPES: yellow nutsedge (Cyperus esculentus), read-out: Visual Growth Reduction (%) 14 Days After Application, CYPES
[5] = DIGSA: crabgrass (Digitaria sanguinalis), read-out: Visual Growth Reduction (%) 14 Days After Application, DIGSA
[6] = ORYSA: rice (Oryza sativa), read-out: Visual Growth Reduction (%) 14 Days After Application, ORYSA
[7] = SETFA: giant foxtail (Setaria faberi), read-out: Visual Growth Reduction (%) 14 Days After Application, SETFA
[8] = SORVU: grain sorghum (Sorghum vulgare), read-out: Visual Growth Reduction (%) 14 Days After Application, SORVU
[9] = ZEAMX: maize, corn (Zea mays), read-out: Visual Growth Reduction (%) 14 Days After Application, ZEAMX

| SMILES | pest or weed control at 70 g/ha [2, 3] | pest or weed control at 140 g/ha [2, 3] | pest or weed control at 70 g/ha [2, 4] | pest or weed control at 140 g/ha [2, 4] | pest or weed control at 70 g/ha [2, 5] | pest or weed control at 140 g/ha [2, 5] | pest or weed control at 70 g/ha [2, 6] | pest or weed control at 140 g/ha [2, 6] | pest or weed control at 70 g/ha [2, 7] | pest or weed control at 140 g/ha [2, 7] | pest or weed control at 70 g/ha [2, 8] | pest or weed control at 140 g/ha [2, 8] | pest or weed control at 70 g/ha [2, 9] | pest or weed control at 140 g/ha [2, 9] | other results |
| --- | --- | --- | --- | --- | --- | --- | --- | --- | --- | --- | --- | --- | --- | --- | --- |
| COC(=O)c1nc(-c2cccc(F)c2)c(F)c(N)c1Cl [Compound 183] | 0 to 29% | 0 to 29% | 0 to 29% | 0 to 29% | 0 to 29% | 0 to 29% | 0 to 29% | 0 to 29% | 0 to 29% | 0 to 29% | 30 to 44% | 45 to 59% | 0 to 29% | 0 to 29% | pest or weed control at 70 g/ha ([1]; ABUTH: velvetleaf (Abutilon theophrasti), application rate 70 g ai/ha, read-out: Visual Growth Reduction (%) 14 Days After Application, ABUTH): 75 to 84%; pest or weed control at 140 g/ha ([1]; ABUTH: velvetleaf (Abutilon theophrasti), application rate 140 g ai/ha, read-out: Visual Growth Reduction (%) 14 Days After Application, ABUTH): 95 to 100%; pest or weed control at 70 g/ha ([1]; AMARE: redroot pigweed (Amaranthus retroflexus), application rate 70 g ai/ha, read-out: Visual Growth Reduction (%) 14 Days After Application, AMARE): 95 to 100%; pest or weed control at 140 g/ha ([1]; AMARE: redroot pigweed (Amaranthus retroflexus), application rate 140 g ai/ha, read-out: Visual Growth Reduction (%) 14 Days After Application, AMARE): 95 to 100%; pest or weed control at 70 g/ha ([1]; BRSNN: oilseed-rape, canola (Brassica napus), application rate 70 g ai/ha, read-out: Visual Growth Reduction (%) 14 Days After Application, BRSNN): 60 to 74%; pest or weed control at 140 g/ha ([1]; BRSNN: oilseed-rape, canola (Brassica napus), application rate 140 g ai/ha, read-out: Visual Growth Reduction (%) 14 Days After Application, BRSNN): 85 to 94%; pest or weed control at 70 g/ha ([1]; CHEAL: lambsquarters (Chenopodium album), application rate 70 g ai/ha, read-out: Visual Growth Reduction (%) 14 Days After Application, CHEAL): 95 to 100%; pest or weed control at 140 g/ha ([1]; CHEAL: lambsquarters (Chenopodium album), application rate 140 g ai/ha, read-out: Visual Growth Reduction (%) 14 Days After Application, CHEAL): 95 to 100%; pest or weed control at 70 g/ha ([1]; EPHHL: wild poinsettia (Euphorbia heterophylla), application rate 70 g ai/ha, read-out: Visual Growth Reduction (%) 14 Days After Application, EPHHL): 95 to 100%; pest or weed control at 140 g/ha ([1]; EPHHL: wild poinsettia (Euphorbia heterophylla), application rate 140 g ai/ha, read-out: Visual Growth Reduction (%) 14 Days After Application, EPHHL): 95 to 100%; pest or weed control at 70 g/ha ([1]; HELAN: sunflower (Helianthus annuus), application rate 70 g ai/ha, read-out: Visual Growth Reduction (%) 14 Days After Application, HELAN): 85 to 94%; pest or weed control at 140 g/ha ([1]; HELAN: sunflower (Helianthus annuus), application rate 140 g ai/ha, read-out: Visual Growth Reduction (%) 14 Days After Application, HELAN): 85 to 94%; pest or weed control at 70 g/ha ([1]; VIOTR: wild pansy (Viola tricolor), application rate 70 g ai/ha, read-out: Visual Growth Reduction (%) 14 Days After Application, VIOTR): 0 to 29%; pest or weed control at 140 g/ha ([1]; VIOTR: wild pansy (Viola tricolor), application rate 140 g ai/ha, read-out: Visual Growth Reduction (%) 14 Days After Application, VIOTR): 0 to 29% |
| COC(=O)c1nc(-c2cc(F)ccc2F)c(F)c(N)c1Cl [Compound 189] | 0 to 29% | 0 to 29% | 0 to 29% | 0 to 29% | 0 to 29% | 0 to 29% | 0 to 29% | 0 to 29% | 0 to 29% | 0 to 29% | 0 to 29% | 0 to 29% | 0 to 29% | 0 to 29% | pest or weed control at 70 g/ha ([1]; ABUTH: velvetleaf (Abutilon theophrasti), 70 g ai/ha, post-emergent, read-out: Visual Growth Reduction (%) 14 Days After Application ABUTH): 75 to 84%; pest or weed control at 140 g/ha ([1]; ABUTH: velvetleaf (Abutilon theophrasti), 140 g ai/ha, post-emergent, read-out: Visual Growth Reduction (%) 14 Days After Application ABUTH): 75 to 84%; pest or weed control at 70 g/ha ([1]; AMARE: redroot pigweed (Amaranthus retroflexus), 70 g ai/ha, post-emergent, read-out: Visual Growth Reduction (%) 14 Days After Application AMARE): 95 to 100%; pest or weed control at 140 g/ha ([1]; AMARE: redroot pigweed (Amaranthus retroflexus), 140 g ai/ha, post-emergent, read-out: Visual Growth Reduction (%) 14 Days After Application AMARE): 95 to 100%; pest or weed control at 70 g/ha ([1]; BRSNN: oilseed-rape, canola (Brassica napus), 70 g ai/ha, post-emergent, read-out: Visual Growth Reduction (%) 14 Days After Application BRSNN): 45 to 59%; pest or weed control at 140 g/ha ([1]; BRSNN: oilseed-rape, canola (Brassica napus), 140 g ai/ha, post-emergent, read-out: Visual Growth Reduction (%) 14 Days After Application BRSNN): 60 to 74%; pest or weed control at 70 g/ha ([1]; CHEAL: lambsquarters (Chenopodium album), 70 g ai/ha, post-emergent, read-out: Visual Growth Reduction (%) 14 Days After Application CHEAL): 85 to 94%; pest or weed control at 140 g/ha ([1]; CHEAL: lambsquarters (Chenopodium album), 140 g ai/ha, post-emergent, read-out: Visual Growth Reduction (%) 14 Days After Application CHEAL): 85 to 94%; pest or weed control at 70 g/ha ([1]; EPHHL: wild poinsettia (Euphorbia heterophylla), 70 g ai/ha, post-emergent, read-out: Visual Growth Reduction (%) 14 Days After Application EPHHL): 0 to 29%; pest or weed control at 140 g/ha ([1]; EPHHL: wild poinsettia (Euphorbia heterophylla), 140 g ai/ha, post-emergent, read-out: Visual Growth Reduction (%) 14 Days After Application EPHHL): 0 to 29%; pest or weed control at 70 g/ha ([1]; HELAN: sunflower (Helianthus annuus), 70 g ai/ha, post-emergent, read-out: Visual Growth Reduction (%) 14 Days After Application HELAN): 85 to 94%; pest or weed control at 140 g/ha ([1]; HELAN: sunflower (Helianthus annuus), 140 g ai/ha, post-emergent, read-out: Visual Growth Reduction (%) 14 Days After Application HELAN): 85 to 94%; pest or weed control at 140 g/ha ([1]; VIOTR: wild pansy (Viola tricolor), 140 g ai/ha, post-emergent, read-out: Visual Growth Reduction (%) 14 Days After Application VIOTR): 0 to 29% |
